Here are results for 19 compounds from patent US20250213735A1, “NEUROPEPTIDE Y1 RECEPTOR (NPY1R) TARGETED THERAPEUTICS AND USES THEREOF” (Radionetics Oncology, Inc., priority 2023, published 2025).

In general, Ki refers to the dissociation constant of the complex between target and ligand, obtained from inhibition or displacement.

The experiment deals with hNPY1R (Homo sapiens (Human), UniProt P25929). Kind of experiment: NPY1R binding assay (SK-N-MC membrane, [125I]-Peptide YY competition).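 Also: bound radioligand separated by filtration over GF/C filter plates and counted, Ki obtained by non-linear regression.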 The note with it: crude SK-N-MC membranes endogenously expressing NPY1R; [125I]-Peptide YY (human) 0.05 nM; 120 min at room temperature; read-out: hNPY1R binding Ki.
Sequence of hNPY1R (P25929 whole entry): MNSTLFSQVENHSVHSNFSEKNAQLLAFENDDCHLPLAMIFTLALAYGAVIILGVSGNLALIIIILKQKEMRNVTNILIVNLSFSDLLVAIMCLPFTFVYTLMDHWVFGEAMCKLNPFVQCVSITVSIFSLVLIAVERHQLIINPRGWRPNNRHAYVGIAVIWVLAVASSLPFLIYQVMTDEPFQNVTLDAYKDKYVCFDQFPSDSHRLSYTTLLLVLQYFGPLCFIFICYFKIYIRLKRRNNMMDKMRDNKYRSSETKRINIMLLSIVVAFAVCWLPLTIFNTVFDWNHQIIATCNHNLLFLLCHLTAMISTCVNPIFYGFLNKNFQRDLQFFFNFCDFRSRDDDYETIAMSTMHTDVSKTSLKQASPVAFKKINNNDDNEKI
For the compound `N=C(N)NCCC[C@@H](NC(=O)C(c1ccccc1)N1CCC(C(F)(F)F)CC1)C(=O)NCc1ccc(O)cc1` (stereo partly drawn) [compound 73, (2R)-5-guanidino-N-(4-hydroxybenzyl)-2-(2-phenyl-2-(4-(trifluoromethyl)piperidin-1-yl)acetamido)pentanamide], the Ki fell in the range of 0.1 to 1 µM.
Turning to `CC1(C)CCN(C(C(=O)N[C@H](CCCNC(=N)N)C(=O)NCc2ccc(O)cc2)c2ccccc2)CC1` (stereo partly drawn) [compound 74, (2R)-2-(2-(4,4-dimethylpiperidin-1-yl)-2-phenylacetamido)-5-guanidino-N-(4-hydroxybenzyl)pentanamide], the Ki was 0.1 to 1 µM.
In the case of `CC1(C)CCCN(C(C(=O)N[C@H](CCCNC(=N)N)C(=O)NCc2ccc(O)cc2)c2ccccc2)C1` (stereo partly drawn) [compound 75, (2R)-2-(2-(3,3-dimethylpiperidin-1-yl)-2-phenylacetamido)-5-guanidino-N-(4-hydroxybenzyl)pentanamide], the Ki lay within 0.1 to 1 µM.
In the case of `N=C(N)NCCC[C@@H](NC(=O)C(c1ccccc1)N1CCN(c2ccccc2)CC1)C(=O)NCc1ccc(O)cc1` (stereo partly drawn) [compound 76, (2R)-5-guanidino-N-(4-hydroxybenzyl)-2-(2-phenyl-2-(4-phenylpiperazin-1-yl)acetamido)pentanamide] it was greater than 1 µM; in that of `CC(C)C1CCN(C(C(=O)N[C@H](CCCNC(=N)N)C(=O)NCc2ccc(O)cc2)c2ccccc2)CC1` (stereo partly drawn) [compound 77, (2R)-5-guanidino-N-(4-hydroxybenzyl)-2-(2-(4-isopropylpiperidin-1-yl)-2-phenylacetamido)pentanamide], 0.01 to 0.1 µM.
In the case of `CCCC1CCN([C@H](C(=O)N[C@H](CCCNC(=N)N)C(=O)NCc2ccc(O)cc2)c2ccccc2)CC1` [compound 78, (R)-5-guanidino-N-(4-hydroxybenzyl)-2-((S)-2-phenyl-2-(4-propylpiperidin-1-yl)acetamido)pentanamide] it was 0.1 to 1 µM; in that of `CCC1CCN(C(C(=O)N[C@H](CCCNC(=N)N)C(=O)NCc2ccc(O)cc2)c2ccccc2)CC1` (stereo partly drawn) [compound 79, (2R)-2-(2-(4-ethylpiperidin-1-yl)-2-phenylacetamido)-5-guanidino-N-(4-hydroxybenzyl)pentanamide], 0.01 to 0.1 µM; in that of `CC(C)(C)C1CCN(C(C(=O)N[C@H](CCCNC(=N)N)C(=O)NCc2ccc(O)cc2)c2ccccc2)CC1` (stereo partly drawn) [compound 80, (2R)-2-(2-(4-(tert-butyl)piperidin-1-yl)-2-phenylacetamido)-5-guanidino-N-(4-hydroxybenzyl)pentanamide], 0.01 to 0.1 µM.
As to `N=C(N)NCCC[C@@H](NC(=O)C(c1ccccc1)N1CCC(C2CC2)CC1)C(=O)NCc1ccc(O)cc1` (stereo partly drawn) [compound 81, (2R)-2-(2-(4-cyclopropylpiperidin-1-yl)-2-phenylacetamido)-5-guanidino-N-(4-hydroxybenzyl)pentanamide], the Ki fell in the range of 0.1 to 1 µM.
Consider `CC(C)CC1CCN(C(C(=O)N[C@H](CCCNC(=N)N)C(=O)NCc2ccc(O)cc2)c2ccccc2)CC1` (stereo partly drawn) [compound 82, (2R)-5-guanidino-N-(4-hydroxybenzyl)-2-(2-(4-isobutylpiperidin-1-yl)-2-phenylacetamido)pentanamide], for which the Ki is 0.1 to 1 µM.
Regarding `N=C(N)NCCC[C@@H](NC(=O)C(c1ccccc1)N1CCC(C2CCCCC2)CC1)C(=O)NCc1ccc(O)cc1` (stereo partly drawn) [compound 83, (2R)-2-(2-(4-cyclohexylpiperidin-1-yl)-2-phenylacetamido)-5-guanidino-N-(4-hydroxybenzyl)pentanamide], the Ki is greater than 1 µM.
Consider `N=C(N)NCCC[C@@H](NC(=O)C(c1ccccc1)N1CCC2(CCCC2)CC1)C(=O)NCc1ccc(O)cc1` (stereo partly drawn) [compound 84, (2R)-5-guanidino-N-(4-hydroxybenzyl)-2-(2-phenyl-2-(8-azaspiro[4.5]decan-8-yl)acetamido)pentanamide], for which the Ki lay within 0.1 to 1 µM.
For `N=C(N)NCCC[C@@H](NC(=O)C(c1ccccc1)N1CCC2(CC1)CC2)C(=O)NCc1ccc(O)cc1` (stereo partly drawn) [compound 85, (2R)-5-guanidino-N-(4-hydroxybenzyl)-2-(2-phenyl-2-(6-azaspiro[2.5]octan-6-yl)acetamido)pentanamide], the Ki lay in the range of 0.01 to 0.1 µM.
In the case of `N=C(N)NCCC[C@@H](NC(=O)C(c1ccccc1)N1CCC(c2ccccc2)CC1)C(=O)NCc1ccc(O)cc1` (stereo partly drawn) [compound 86, (2R)-5-guanidino-N-(4-hydroxybenzyl)-2-(2-phenyl-2-(4-phenylpiperidin-1-yl)acetamido)pentanamide] it was 0.1 to 1 µM.
Regarding `N=C(N)NCCC[C@@H](NC(=O)C(c1ccccc1)N1CCC2(CCCCC2)CC1)C(=O)NCc1ccc(O)cc1` (stereo partly drawn) [compound 87, (2R)-5-guanidino-N-(4-hydroxybenzyl)-2-(2-phenyl-2-(3-azaspiro[5.5]undecan-3-yl)acetamido)pentanamide], the Ki was in the range of 0.1 to 1 µM.
Turning to `N=C(N)NCCC[C@@H](NC(=O)C(c1ccccc1)N1CCC2(CCC2)CC1)C(=O)NCc1ccc(O)cc1` (stereo partly drawn) [compound 89, (2R)-5-guanidino-N-(4-hydroxybenzyl)-2-(2-phenyl-2-(7-azaspiro[3.5]nonan-7-yl)acetamido)pentanamide], the Ki is 0.01 to 0.1 µM.
In the case of `N=C(N)NCCC[C@@H](NC(=O)C(c1ccccc1)N1CCC2(CC1)CC(F)(F)C2)C(=O)NCc1ccc(O)cc1` (stereo partly drawn) [compound 90, (2R)-2-(2-(2,2-difluoro-7-azaspiro[3.5]nonan-7-yl)-2-phenylacetamido)-5-guanidino-N-(4-hydroxybenzyl)pentanamide] it was 0.1 to 1 µM; in that of `CCNC(=O)/N=C(/N)NCCC[C@@H](NC(=O)C(c1ccccc1)N1CCC(C(C)(C)C)CC1)C(=O)NCc1ccc(O)cc1` (stereo partly drawn) [compound 91, (2R)-2-(2-(4-(tert-butyl)piperidin-1-yl)-2-phenylacetamido)-5-((Z)-2-(ethylcarbamoyl)guanidino)-N-(4-hydroxybenzyl)pentanamide], less than 0.01 µM.
On to `CCNC(=O)/N=C(/N)NCCC[C@@H](NC(=O)C(c1ccccc1)N1CCC(C(C)(C)C)CC1)C(=O)NCc1c(F)cc(O)cc1F` (stereo partly drawn) [compound 92, (2R)-2-(2-(4-(tert-butyl)piperidin-1-yl)-2-phenylacetamido)-N-(2,6-difluoro-4-hydroxybenzyl)-5-((Z)-2-(ethylcarbamoyl)guanidino)pentanamide], for which the Ki was less than 0.01 µM.
